Experimental data taken from patent US7041819B2, “Halogenated calixpyrroles and uses thereof” (Board of Regents, The University of Texas System, priority 1996, dated 2006).
Values belong to the compound of their own block, whether it stands above or below them.

Columns and labels:
[1] = 1H NMR titration in CD2Cl2; conditions: for Stability Constant, Chloride / Stability Constants, Chloride: CD2Cl2; for Stability Constants, Chloride: Table 4, tetrabutylammonium salt 0.1 M added to 10 mM receptor
[2] = 1H NMR titration in CD2Cl2; assay type: binding; conditions: for Stability Constants, Hydrogen sulfate: Table 4, 0.1 M salt added to 10 mM receptor
[3] = 1H NMR titration in CD2Cl2; assay type: binding; conditions: tetrabutylammonium salt 0.1M added to 10 mM receptor
[4] = 1H NMR titration in CD2Cl2; assay type: binding; conditions: tetrabutylammonium salt 0.1M added to 10 mM receptor; remark: listed apart in the source
[5] = 1H NMR titration in CD2Cl2; assay type: binding; conditions: for Stability Constant, Dihydrogen phosphate: tetrabutylammonium salt 0.1M added to 10 mM receptor; for Stability Constant, Dibiphosphate: tetrabutylammonium salt 0.03 M added to 3 mM receptor; for Stability Constants, Dihydrogen phosphate: Table 4, 0.1 M salt added to 10 mM receptor, value of 28 estimated
[6] = NMR titration with neutral substrates in benzene-d6; assay type: binding; conditions: benzene-d6 at 298 K; 1 at ca. 4 × 10^−3 M
Text: Substrate Binding in Solution. The binding of neutral molecules to calix[4]pyrrole in the solid state prompted the present inventors to quantify the binding affinities of calix[4]pyrrole to a number of hydrogenbinding neutral molecules. Table 6 illustrates the varying degrees of affinity to which calix[4]pyrrole binds to various hydrogen binding compounds.

[7] = 1H NMR titration in CD2Cl2; conditions: for Stability Constant, Fluoride: CD2Cl2
[8] = Anion binding affinity compared with parent calix[4]pyrrole; conditions: 13 and 29 vs compound 2; 14 and 28 vs compound 1
Text: These types of compounds are useful as HPLC column media since low affinity constants and fast complexation-decomplexation rates generally lead to efficient separation of substrates (see Example 10).
Receptors with an increased anion binding ability such as 14 are useful as anion sequestering agents (e.g., in removal of phosphate and nitrate pollutants from aqueous environments) (see Example 12) or as synthons in reactions to produce further modified calix[4]pyrroles. The present inventors envision this system will be useful as a precursor to a calix[m]pyridino[n]pyrrole or a calix[m]pyridine.
The attachment of electron-donating substituents (such as methoxy) to the β-position (carbon or C-rim of the calixpyrrole) decreases the stability constants of compound 13 relative to compound 2. However attachment of electron-withdrawing substituents (such as bromine) to the carbon-rim has increased the stability constants of compound 14 relative to compound 1.
This increased binding affinity towards anions was not observed for the Substituted amide substituted mesooctamethylcalix[4]pyrrole 28 when compared to the compound 1. A possible reason is that the carboxy ‘tail” is not long enough to swing around and contribute to the binding of the anion.

[9] = Stability under acidic conditions; assay type: physicochemical; conditions: for stability under conditions of acid catalysis at higher temperature: 64° C., within 24 h; for stability under conditions of acid catalysis identical to those of preparation: purified samples, 24 hours, ambient temperature
Experimental: An advantage of 44 is that in contrast to its simple all-hydrogen analogue 43 it is stable upon exposure to acidic aqueous environments (down to pH 3 or 4 for >24 hours). This makes this system particularly useful for anion recognition, binding, sensing, transport, and extraction applications described in Examples 4, 8, 10, 11, 12, and 15.
A further advantage of the calix[n]pyrroles is that they are stable at a wide range of temperatures, especially at neutral or basic conditions. Under acidic conditions and extreme high or low temperatures, the meso linkage may degrade. A particular attribute of the fluorinated calix[n]pyrroles 44, 46, and 48 is that they are very stable under acidic conditions.
This latter finding is consistent with compounds 46 and 48 being kinetically stable at ambient temperature but not at higher temperatures.

[10] = Binding constant in wet acetonitrile
Experimental: Binding constants vary with the solvent used for the binding study. Note that the solvent used for the data of Table 2 of Example 10 was dichloromethane whereas the solvent used for the studies herein was acetonitrile. In addition, a binding constant of 12,300 M^−1 was determined for the binding of pyrophosphate to 44 in wet acetonitrile.

[11] = 1H and 19F NMR titration in acetonitrile-d3 (0.5% v/v D2O); assay type: binding; conditions: wet acetonitrile
Text: ^1H and ^19F NMR Titrations. The receptor 44, as a 0.014 M acetonitrile-d3 (0.5% v/v D2O) solution, was titrated by addition of concentrated acetonitrile-d3 (0.5% v/v D2O) solutions of the anions in question (in the form of their tetrabutylammonium salts). In order to account for dilution effects, these anion solutions also contained receptor 44 at its initial concentration. The data were fit to a 1:1 binding profile according to the method of Wilcox (in Frontiers in Supramolecular Organic Chemistry and Photochemistry; Schneider, H.-J., Dürr, H., Eds.; VCH: Weinheim, 1991) using changes in both the NH and β-F pyrrolic resonances in the ^1H and ^19F NMR spectra, respectively, that were assigned to the portion of the total receptor concentration that was considered to be monomeric. Specifically, the change in the position of the peaks initially at 7.24 ppm (^1H NMR) and −177.03 ppm (^19F NMR) were followed. Integration of the two pyrrolic NH resonances (corresponding to calix[4]pyrroles that are “free” and bound to the next receptor molecule) made it possible to estimate the relative concentration of the monomeric fraction in the acetonitrile-d3 (0.5% v/v D2O) solutions being subject to analysis. This estimated monomeric receptor concentration was used to calculate the affinity constants. […] Estimated errors were <20%.
The presence of two different receptor forms in solution precluded the use of Job plots to analyze binding stoichiometries. […] This increased selectivity is summarized in terms of the ratio of the binding constants, R44/43. (Table 9). Separate from the issue of binding to the monomeric form, but complicating the analyses somewhat was the finding that the addition of phosphate and fluoride to wet acetonitrile solutions of 44 led to deaggregation.
^1H and ^19F NMR spectroscopic titrations. Receptor 46, as a 0.014 M acetonitrile-d3 (0.5% v/v D2O) solution, was titrated by addition of concentrated acetonitrile-d3 (0.5% v/v D2O) solutions of the anions in question (in the form of their tetrabutylammonium salts). In order to account for dilution effects, these anion solutions also contained receptor 46 at its initial concentration. The data were fit to a 1:1 binding profile according to the method of Wilcox (Wilcox, C. S. in Frontiers in Supramolecular Organic Chemistry and Photochemistry; Schneider, H.-J., Dürr, H., Eds.; VCH: Weinheim, 1991) using changes in both the NH and β-F pyrrolic resonances in the ^1H and ^19F NMR spectra, respectively.
The binding properties of 46 and 48 were studied.

[12] = acetonitrile-d3 (0.5% v/v D2O) at 22° C.; Anzenbacher et al. 1999; cited from earlier work
[13] = acetonitrile-d3 (0.5% v/v D2O) at 22° C.; Anzenbacher et al. 1999; cited from earlier work; remark: listed apart in the source
[14] = acetonitrile-d3 (0.5% v/v D2O) at 22° C.; Anzenbacher et al. 1999; cited from earlier work; remark: listed apart in the source
[15] = acetonitrile-d3 (0.5% v/v D2O) at 22° C.; Anzenbacher et al. 1999; cited from earlier work; remark: listed apart in the source
[16] = tetrabutylammonium salt 0.1M added to 10 mM receptor
[17] = tetrabutylammonium fluoride trihydrate 0.1M added to 10 mM receptor
[18] = tetrabutylammonium salt 0.03 M added to 3 mM receptor
[19] = tetrabutylammonium salt 0.03 M added to 3 mM receptor, value of 14 estimated

- Stability Constant, Chloride [1, 16]: 350 (±5.5) M^−1
- Stability Constant, Hydrogen sulfate [2, 16]: <10 M⁻¹
- Stability Constant, Iodide [3]: <10 M⁻¹
- Stability Constant, Bromide [4]: 10 (±0.5) M^−1
- Stability Constant, Dihydrogen phosphate [5]: 97 (±3.9) M^−1
- Stability Constant, Fluoride [7, 17]: 17170 (±900) M^−1
Compound: CC1(C)c2ccc([nH]2)C(C)(C)c2ccc([nH]2)C(C)(C)c2ccc([nH]2)C(C)(C)c2ccc1[nH]2 [Compound 1, meso-octamethylcalix[4]pyrrole]
- Ka, 1,1,3,3tetramethylurea [6]: 2.2 ± 0.1 M^1
- Ka, 1,2dimethylimidazole [6]: 5.4 ± 0.3 M^1
- Ka, N,N-dimethylacetamide [6]: 9.0 ± 0.9 M^1
- Ka, N,N-dimethylformamide [6]: 11.3 ± 0.8 M^1
- Ka, N-formylglycine ethyl ester [6]: 13.3 ± 1.0 M^1
- Ka, acetone [6]: 2.2 ± 0.2 M^1
- Ka, benzyl alcohol [6]: 9.7 ± 0.7 M^1
- Ka, dimethyl sulfoxide [6]: 16.2 ± 1.1 M^1
- Ka, ethanol [6]: 10.7 ± 0.7 M^1
- Ka, isopropyl alcohol [6]: 7.0 ± 0.4 M^1
- Ka, methanol [6]: 12.7 ± 1.0 M^1
- Ka, secbutanol [6]: 6.2 ± 0.4 M^1

Compound: β-monoester-meso-octamethylcalix[4]pyrrole [Compound 10]
- Stability Constant, Chloride [1, 18]: 47 (±1) M^−1
- Stability Constant, Fluoride [7, 19]: 1.1 (±0.2) × 10^3 M^−1

- Stability Constant, Chloride [1, 18]: <10 M⁻¹
- Stability Constant, Dibiphosphate [5]: 6.5 (±0.4) × 10^2 M^−1
- anion binding affinity relative to parent calix[4]pyrrole [8]: decreased
- Stability Constant, Fluoride [7, 19]: 1.7 (±0.2) × 10^2 M^−1
Compound: COc1c2[nH]c(c1OC)C1(CCCCC1)c1[nH]c(c(OC)c1OC)C1(CCCCC1)c1[nH]c(c(OC)c1OC)C1(CCCCC1)c1[nH]c(c(OC)c1OC)C21CCCCC1 [Compound 13, β-Octamethoxy-meso-tetraspirocyclohexylcalix[4]pyrrole]

- stability under acidic conditions [9]: very stable
- Stability Constant, Pyrophosphate [10]: 12300 M⁻¹
- Stability Constant, Chloride [11]: 10700 M⁻¹
Compound: CC1(C)c2[nH]c(c(F)c2F)C(C)(C)c2[nH]c(c(F)c2F)C(C)(C)c2[nH]c(c(F)c2F)C(C)(C)c2[nH]c1c(F)c2F [Compound 44, Meso-Octamethyl-β-octafluorocalix[4]pyrrole]

Compound: meso-tetramethylcalix[4]pyrrole-p-tert-butylcalix[4]arene pseudo dimer [Compound 15]
- changes in the NMR spectrum on addition of tetrabutylammonium fluoride ([7]; dichloromethane-d2, 10.0 equiv.): no changes

- stability under acidic conditions [9]: very stable
- stability under conditions of acid catalysis at higher temperature [9]: nearly complete conversion to 44
- stability under conditions of acid catalysis identical to those of preparation [9]: remained completely intact
- Stability Constant, Pyrophosphate [10]: 28 000 M^−1
- Stability Constant, Chloride [11]: 3 600 M^−1
Compound: CC1(C)c2[nH]c(c(F)c2F)C(C)(C)c2[nH]c(c(F)c2F)C(C)(C)c2[nH]c(c(F)c2F)C(C)(C)c2[nH]c(c(F)c2F)C(C)(C)c2[nH]c(c(F)c2F)C(C)(C)c2[nH]c(c(F)c2F)C(C)(C)c2[nH]c(c(F)c2F)C(C)(C)c2[nH]c1c(F)c2F [Compound 48, β-hexadecafluoro-meso-hexadecamethylcalix[8]pyrrole]

- Stability Constants, Chloride [1]: 405 (±10) M^−1
- Stability Constants, Hydrogen sulfate [2]: <10 M⁻¹
- Stability Constants, Dihydrogen phosphate [5]: 80 (±15)^b M^−1
- anion binding affinity relative to parent calix[4]pyrrole [8]: not observed
Compound: CCCCNC(=O)Cc1cc2[nH]c1C(C)(C)c1ccc([nH]1)C(C)(C)c1ccc([nH]1)C(C)(C)c1ccc([nH]1)C2(C)C [Compound 28, Mono-β-butylamidocalix[4]pyrrole]

Compound: meso-octamethylcalix[4]pyrrole [Compound 1]
- Affinity constant, DMSO-d6 [12]: <5^c mol^−1
- Affinity constant, F^− [13]: >10 000 mol^−1
- Affinity constant, H2PO4^− [14]: 1 300 mol^−1
- Affinity constant, Cl^− [15]: 5 000 mol^−1

- stability under acidic conditions [9]: very stable
- stability under conditions of acid catalysis at higher temperature [9]: nearly complete conversion to 44
- stability under conditions of acid catalysis identical to those of preparation [9]: remained completely intact
- Stability Constant, Pyrophosphate [10]: 25 000 M^−1
- Stability Constant, Chloride [11]: 41 000 M^−1
- Stability Constant, DMSO [11]: 29 (±3) M^−1
Compound: CC1(C)c2[nH]c(c(F)c2F)C(C)(C)c2[nH]c(c(F)c2F)C(C)(C)c2[nH]c(c(F)c2F)C(C)(C)c2[nH]c(c(F)c2F)C(C)(C)c2[nH]c1c(F)c2F [Compound 46, β-Decafluoro-meso-decamethylcalix[5]pyrrole]

Compound: β-diester-meso-octamethylcalix[4]pyrrole [Compound 11]
- interaction with chloride anion in solution [1]: interact
- interaction with fluoride anion in solution [7]: interact

- Stability Constant, Chloride [1, 18]: 4.3 (±0.6) × 10^3 M^−1
- Stability Constant, Dibiphosphate [5]: <10 M⁻¹
- anion binding affinity relative to parent calix[4]pyrrole [8]: increased
- Stability Constant, Fluoride [7, 19]: 2.7 (±0.4) × 10^4b M^−1
Compound: CC1(C)c2[nH]c(c(Br)c2Br)C(C)(C)c2[nH]c(c(Br)c2Br)C(C)(C)c2[nH]c(c(Br)c2Br)C(C)(C)c2[nH]c1c(Br)c2Br [Compound 14, β-Octabromo-meso-octamethylcalix[4]pyrrole]

- Stability Constants, Chloride [1]: 415(±45) M^−1
- Stability Constants, Hydrogen sulfate [2]: <10 M⁻¹
- Stability Constants, Dihydrogen phosphate [5]: 62 (±6) M^−1
- anion binding affinity relative to parent calix[4]pyrrole [8]: marked increase
Compound: CCCCNC(=O)CCCC1(C)c2ccc([nH]2)C2(CCCCC2)c2ccc([nH]2)C2(CCCCC2)c2ccc([nH]2)C2(CCCCC2)c2ccc1[nH]2 (stereo not drawn) [Compound 29, Mono-meso-butylamidocalix[4]pyrrole]

- Stability Constant, Chloride [1, 16]: 117 (±4.0) M^−1
- Stability Constant, Dihydrogen phosphate [5]: <10 M⁻¹
- Stability Constant, Fluoride [7, 17]: 3600 (±395) M^−1
Compound: c1cc2[nH]c1C1(CCCCC1)c1ccc([nH]1)C1(CCCCC1)c1ccc([nH]1)C1(CCCCC1)c1ccc([nH]1)C21CCCCC1 [Compound 2, meso-Tetraspirocyclohexylcalix[4]pyrrole, reference compound]
